Experimental data reported in patent publication US20110312877A1, “ENGINEERED TUNABLE NANOPARTICLES FOR DELIVERY OF THERAPEUTICS, DIAGNOSTICS, AND EXPERIMENTAL COMPOUNDS AND RELATED COMPOSITIONS FOR THERAPEUTIC USE” (APARNA BIOSCEIENCES, priority 2008, published 2011).
Where no end group is shown, it is not given here.

Test system: HRP-labeled IgG
Test: PEI-PEG-Peptide antibody binding and free peptide competition (ELISA)
Conditions: peptide 0 added after antibody, lowering competition (FIG. 1C)
Procedure: PPP0 (Pei-PEG-Peptide0) was diluted into the coating buffer (1×TBS, pH7.2) (final concentration: 30 μg/ml) and immediately coated 96-well microplate with 100 µl per well of the diluted PPP0 solution. The plates were sealed and incubated overnight at room temperature.
Wells were aspirated and washed with 300 µl of washing buffer (1×TBS containing 0.1% Tween 20, pH 7.4). The procedure was repeated two more times for a total of three washes
In the next step plates were blocked by adding 300 µl 1% BSA in TBS and incubating for two hours.
[…] Next, 50 µl of HRP-labeled IgG (˜3 ug/ml in binding buffer) was added to each of the wells. The plate was shaken on a horizontal microplate shaker at 500±50 rpm for 10 rain and then incubate at 37° C. for 2 hours. After incubation, wells were washed 5 times with washing buffer to remove the competitors and HRP-IgG.
150 µl per well of freshly prepared substrate solution was added and incubated for 25-30 min at room temperature. The reaction was stopped by adding 70 µl of 2NH2SO4 into each well. Plate was gently tapped to ensure a thorough mixing. Optical density of each well was measured immediately, using a microplate reader set to 450 nm. Data was analyzed GraphPad Prism software.

With “PPP: Fc binding peptide (HWRGWVC)-PEG-PEI conjugate made with SCM-PEG-Mal (3400) and PEI 2K (also: conjugated to PEG(3400)-PEI 2K via SCM-PEG-Mal, site not given here)” the “off-rate for antibody dissociation from PPP” value was “long”.
